Reference: patent publication US20230330180A1 (priority 2022, published 2023)

System: SARS-CoV-2 KOR-KCDC03-2020 strain
Test: Prophylactic immunofluorescent infection assay in Vero E6 cells
Format: cell-based
Details: Severe acute respiratory syndrome coronavirus 2, compound added one hour prior to virus, MOI 0.0125, 24 hours

Q: `CCC(CC)COC(=O)[C@H](C)N[P@](=O)(OC[C@H]1O[C@@](C#N)(c2ccc3c(N)ncnn23)[C@H](O)[C@@H]1O)Oc1ccccc1` [Remdesivir, remdesivir] was tested. Which EC50 did it give?
A: 12.9 µM
